Source: patent EP1377579B1 (Aventis Pharmaceuticals Inc., priority 2000, dated 2002)
Like-named read-outs stand apart in the source and are kept apart here.

Key:
cdk1/cyclin B = cdk1/cyclin B (Homo sapiens, UniProt P06493); assay: Cyclin-dependent kinase assay, cdk1/cyclin B; conditions: CDK1 IC50, nM, Histone H1, 10 µM ATP
[1] = tested on: PC-3 Human Prostate Tumors; assay: PC-3 human prostate tumor xenograft in nude mice; type: in vivo; design: unit not given here
Protocol: Antitumor efficacy is assessed using two subcutaneous human tumor xenograft models. The studies are performed using conventional assay techniques. Briefly, HL-60 (leukemia, 5 x10^5 cells) and PC-3 (prostate, 5 x 10^6 cells) tumor cells are injected subcuateously into nude mice (Crl-CD1-Br-nu, Charles River Laboratory, Wilmington, MA). Dosing with compounds began when tumors reached 50 to 100 mm^3. The dose route/schedule for the test compounds is ip/qld (5x/wk). The test doses are set based on the maximum tolerated dose (MTD). […] The test doses for the efficacy studies are set at 1/3rd the MTD (low dose) and the MTD (high dose). The results are shown in Tables 4 and 5 (HL-60, leukemia) (PC-3, prostate cancer). The length of the treatment phase is dependent on the tumor growth rate for the two models. This treatment phase is typically about 3 weeks for the HL-60 model and about 5 weeks for the PC-3 model. […] Dosing with flavopiridol is for the same time frame as for the experimental compounds in both xenograft models. Tumor volume (twice weekly) and body weights (once weekly) are monitored throughout the course of the treatment phase of the experiment. Tumor sizes are measured by external caliper measurements of protruding tumor. Volumes are calculated using the following formula: volume =½ (a x b2), where b is the smaller of two perpendicular diameters.

cdk2/cyclin E = cdk2/cyclin E (Homo sapiens, UniProt P24941); assay: Cyclin-dependent kinase assay, cdk2/cyclin E; conditions: CDK2 IC50, nM, GST-pRb substrate, 10 µM ATP
Protocol: The insect cell (Sf9) expression is optimized for each of the CDK/cyclin pairs according to the manufacturer's protocols (Life Technologies).
The viruses are added to the cells and the culture is incubated at 27°C for the desired time. The cells are harvested by centrifugation at 3000 rpm for 10 minutes. The cells are snap frozen on dry ice and stored at - 80°C.
Cell extracts are made following a standard procedure. The cell pellet is resuspended in lysis buffer (50 mM HEPES, pH 8.0, 10 mM MgCl2, 1 mM DTT, 2.5 mM EGTA, 1 mM EDTA, 10 mM β-glycerophosphate, 1 mM sodium vanadate, 1 mM sodium fluoride, 1 x Protease inhibitor cocktail). The cells are lysed using the microfluidizer (Microfluidics) for 20 minutes. Cell debris is removed by centrifugation at 100,000 x g. The cell extracts are aliquoted in 1 ml aliquots, frozen on dry ice, and stored at -80°C.
The kinase reactions are performed following a standard procedure. The enzyme and inhibitor are diluted in kinase buffer (50 mM HEPES, pH 8.0, 10 mM MgCl2, 2.5 mM EGTA, 10 mM β-glycerophosphate, 1 mM sodium vanadate, 1 mM sodium fluoride, and 1 mM DTT) and pre-incubated for 30 minutes. The cdk2 and cdk4 enzyme activities are assayed using 500 ng of the GST-pRb substrate (see description below) in the presence of 10 µM cold ATP and 1 µCi of [γ-^33P] ATP for 30 minutes at room temperature. […] The reactions are terminated by the addition of 50 µL of 10 mM cold ATP to stop the reactions. The reactions are transferred to a pre-soaked 96-well multi-screen plate containing 30 µL of 100% TCA per well. After incubation for one hour at room temperature, the plates are washed twice with 200 µl of 20% TCA, followed by 200 µl of 10% TCA and finally with 200 µl of 5% TCA. After drying the plates at room temperature, the filter plates are placed in adapter plates (Packard) and 40 µl of Microscint-O® (Packard) is added to each well.

Colo-205 = assay: In vitro proliferation assay (MTT), Colo-205; type: cell-based; conditions: Homo sapiens
Method in brief: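 Colo-205 cells were seeded at 1000–2500 cells/well and allowed to attach overnight, then exposed to compound for 3 days. Viable cells were measured by MTT reduction (2–4 h, 37 °C), with DMSO-solubilised dye read at 570 nm. IC50 was derived from concentration–response data.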

NCI-H460 = assay: In vitro proliferation assay (MTT), NCI-H460; type: cell-based; conditions: Homo sapiens
Method in brief: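 Cells were plated at 1000 to 2500 cells/well and allowed to attach overnight before compound exposure. After 3 days, viable cells were estimated with MTT dye for 2 to 4 hr at 37 C, then solubilized in DMSO and read at 570 nm. IC50s were derived from MTT or SRB raw data.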

cdk4/cyclin D1 = cdk4/cyclin D1 (Homo sapiens, UniProt P11802); assay: Cyclin-dependent kinase assay, cdk4/cyclin D1; type: biochemical; conditions: cyclin D1/cdk4; GST-pRb substrate, 10 µM ATP
[2] = Red blood cell binding, human whole blood; type: in vitro ADME; conditions: 30 minutes at 37°C, 500 ng/ml
Protocol: Compounds, including one positive control, are assessed for red blood cell (RBC) uptake, using a modified procedure based on the protocol reported in Sun, J.X.S., et al. High-performance liquid chromatographic analysis, plasma protein binding and red blood cell partitioning of phenprobamate. Biopharmaceutics and Drug Disposition, 8 (1987) 341-351.
Briefly, RBC uptake is evaluated by comparison of the levels in spiked plasma (n=3) and plasma isolated from spiked whole blood (n=3). Compounds are incubated with human and mouse whole blood, respectively, for 30 minutes at 37°C using a nominal concentration of 500 ng/ml. Following centrifugation, the plasma is removed and submitted for analysis. Each compound is also spiked into blank plasma at a nominal concentration of 500 ng/ml, and submitted for analysis. Levels in the two plasma samples (Cp' and Cp in the equation below) and the blood hematocrit are used to determine the red blood cell to plasma ratio (Crbc/Cp). (Crbc)/(Cp) = (Cpʹ)/(Cp•H)-((1-H))/(H) [formula] In equation 1, Cp' is the level of drug in the spiked "blank" plasma, Cp is the level of drug in the plasma of spiked whole blood, and H is the hematocrit. The hematocrit values are determined as 0.4 for human whole blood and 0.41 for mouse whole blood. The samples are analyzed with ESI LC/MS, using positive ion detection with an internal standard.
The red blood cell to plasma ratio is determined for each compound using equation 1. Tables 6 and 7 summarize the respective mean Crbc/Cp values and standard deviations for mouse and human whole blood, respectively, in descending order based on the red blood cell to plasma ratio, where"*" denotes Positive Control, and "ND" denotes Not Determined. MDL 108552 is included as a positive control for red blood cell uptake. Table 6. Red Blood Cell to Plasma Ratio for compounds in mouse whole blood

in vivo = conditions: male, Hsd:ICR (CD-1), mouse, plasma
Protocol: Male mice are given single intravenous cassette doses of CDK inhibitor compounds.
Doses are adjusted for the weight of the individual dihydrochloride and trihydrochloride salts. The compounds are stored desiccated within a closed cabinet at room temperature before use. Dose levels are prepared on the morning of each study.
A single intravenous cassette dose (18 or 15 mg/kg free base) is administered. For each compound, this is equivalent to a dose of approx. 3 mg/kg free base. […] The dose is administered at a volume of 10 ml/kg (total volume of approximately 0.25 ml/animal).
Male mice (Hsd:ICR (CD-1® SD®), Harlan), each weighing approximately 20 - 30 g at the start of the study. […] Water is available ad libitum throughout the study.
Dose Administration and Sample Collection: • A single cassette dose of 5-6 compounds is administered by bolus injection into the tail vein over a 10 - 15-second period. […] Whole blood (approximately 0.6 ml/sample) is obtained by cardiac puncture and transferred to 3 ml glass tubes containing 45 U sodium heparin.
Sample Processing: Plasma: Whole blood is centrifuged at approximately 3,200 rpm for 10 min at approximately 5°C and the plasma (approx. 0.3 ml/sample) is transferred to chilled plastic vials and stored at approx. -70°C until bioanalysis.
Sample Analysis: Concentrations of each test article in plasma are quantitated by a non-validated method based on LC/MS using the following protocol.
Samples are removed from the freezer, allowed to thaw at room temperature, and vortexed to insure complete homogenization prior to sample manipulation. Samples are then prepared according to the following scheme: • 1. transfer 48 µL of plasma (blank mouse sample) into a 12 x 75 mm test tube. • 2. add 12 µL of working standard to the blank plasma for standard curve preparation. • 3. […] Inject 25 µL on LC/MS.
Data Analysis: Concentrations of Compounds in plasma of individual animals are determined by bioanalytics. […] Statistical analyses are limited to simple expressions of variation (mean and standard deviation). The plasma AUC (area-under-curve) is determined by the linear trapezoidal rule. […] All PK parameters are determined by noncompartmental methods using WinNonlin version 3.0 (Pharsight Corp). Plasma vs. time profiles are prepared by Sigma Plot (SPSS, Inc.).

[3] = COLO 205, MTT assay, value (SD, n) where given, read-out: Colo-205 Colon (IC50 µM)
[4] = NCI-H460, MTT assay, value (SD, n) where given, read-out: H-460 Lung (IC50 µM)
[5] = COLO 205, read-out: Colo-205 Colon (IC50 µM)
[6] = NCI-H460, read-out: H-460 Lung (IC50 µM)

Chain of cdk4/cyclin D1 (P11802 whole entry): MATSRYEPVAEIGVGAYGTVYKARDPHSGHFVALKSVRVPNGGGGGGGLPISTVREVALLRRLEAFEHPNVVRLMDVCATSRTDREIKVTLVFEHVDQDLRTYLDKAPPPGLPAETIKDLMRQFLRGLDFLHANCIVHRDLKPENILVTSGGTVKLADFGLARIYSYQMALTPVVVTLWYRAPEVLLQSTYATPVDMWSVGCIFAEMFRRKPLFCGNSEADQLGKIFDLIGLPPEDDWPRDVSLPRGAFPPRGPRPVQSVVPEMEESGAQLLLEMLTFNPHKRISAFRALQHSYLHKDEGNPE
Chain of cdk4/cyclin D1 (P24385 whole entry partner): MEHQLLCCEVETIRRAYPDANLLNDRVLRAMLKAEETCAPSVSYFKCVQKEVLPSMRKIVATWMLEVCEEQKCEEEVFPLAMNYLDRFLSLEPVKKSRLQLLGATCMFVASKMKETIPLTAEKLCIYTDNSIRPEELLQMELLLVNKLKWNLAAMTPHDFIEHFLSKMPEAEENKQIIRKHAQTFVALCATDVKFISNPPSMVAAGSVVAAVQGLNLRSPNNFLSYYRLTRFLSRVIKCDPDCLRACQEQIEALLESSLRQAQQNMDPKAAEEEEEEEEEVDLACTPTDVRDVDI
Chain of cdk1/cyclin B (P06493 whole entry): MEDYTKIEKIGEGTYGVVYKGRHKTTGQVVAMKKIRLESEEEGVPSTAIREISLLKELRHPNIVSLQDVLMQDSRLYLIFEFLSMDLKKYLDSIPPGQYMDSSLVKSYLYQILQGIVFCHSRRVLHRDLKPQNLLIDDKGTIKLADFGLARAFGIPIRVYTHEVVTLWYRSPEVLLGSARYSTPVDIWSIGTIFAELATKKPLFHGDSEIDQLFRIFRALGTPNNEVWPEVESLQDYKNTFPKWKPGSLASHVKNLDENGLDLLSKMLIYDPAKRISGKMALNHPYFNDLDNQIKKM
Chain of cdk1/cyclin B (P14635 whole entry partner): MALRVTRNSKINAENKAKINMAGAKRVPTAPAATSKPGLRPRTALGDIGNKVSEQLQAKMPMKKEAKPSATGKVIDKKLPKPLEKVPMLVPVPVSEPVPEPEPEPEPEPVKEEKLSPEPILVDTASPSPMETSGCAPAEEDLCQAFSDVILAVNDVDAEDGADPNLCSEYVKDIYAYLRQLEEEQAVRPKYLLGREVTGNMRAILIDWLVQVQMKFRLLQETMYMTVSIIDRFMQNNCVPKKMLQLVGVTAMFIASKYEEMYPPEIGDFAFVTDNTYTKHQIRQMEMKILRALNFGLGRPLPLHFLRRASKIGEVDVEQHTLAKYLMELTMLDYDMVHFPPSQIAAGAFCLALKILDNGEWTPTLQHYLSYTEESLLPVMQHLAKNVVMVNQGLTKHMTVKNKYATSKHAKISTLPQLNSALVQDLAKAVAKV

| SMILES | IC50 (cdk1/cyclin B) | PC-3 Mean Vol. ± SD ([1]; Table 4, dose 1 mg/kg ip) | PC-3 Mean Vol. ± SD ([1]; Table 4, dose 3 mg/kg ip) | IC50 (cdk2/cyclin E) | IC50 (Colo-205; [3]) | IC50 (NCI-H460; [4]) | IC50 (cdk4/cyclin D1) | Mean Red Blood Cell to Plasma Ratio [2] | concentration at 0.083 h (in vivo; intravenous, 3 mg/kg) | concentration at 0.25 h (in vivo; intravenous, 3 mg/kg) | concentration at 0.5 h (in vivo; intravenous, 3 mg/kg) | concentration at 1 h (in vivo; intravenous, 3 mg/kg) | concentration at 3 h (in vivo; intravenous, 3 mg/kg) | concentration at 6 h (in vivo; intravenous, 3 mg/kg) | concentration at 8 h (in vivo; intravenous, 3 mg/kg) | AUC(0-inf) (in vivo; iv, 3 mg/kg) | Cmax (in vivo; iv, 3 mg/kg) | half-life (in vivo; iv, 3 mg/kg) | IC50 (Colo-205; [5]) | IC50 (NCI-H460; [6]) | also measured |
| --- | --- | --- | --- | --- | --- | --- | --- | --- | --- | --- | --- | --- | --- | --- | --- | --- | --- | --- | --- | --- | --- |
| Cl.Cl.N[C@H]1CC[C@H](Nc2nc(NC3CCN(C(=O)Nc4ccc(C(F)(F)F)cc4)CC3)c3ncn(C4CCCC4)c3n2)CC1 [compound 149, trans-4-[2-(4-Amino-cyclohexylamino)-9-cyclopentyl-9H-purin-6-ylamino]-piperidine-1-carboxylic acid (4-trifluoromethyl-phenyl)-amide dihydrochloride] | 30 nM | 1084 ± 929 | 2089 ± 1382 | 51 nM | 0.09 µM | 0.32 µM | 91 nM | 2.8 | 3110 ± 703 ng/mL | 419 ± 69.8 ng/mL | 133 ± 10.2 ng/mL | 59.8 ± 17.3 ng/mL | 15.5 ± 4.8 ng/mL | 4.1 ± 2.1 ng/mL | 5.4 ± 0.5 ng/mL | 1020 ng·h/mL | 3110 ng/mL | 1.6 h | – | – | – |
| Cl.Cl.N[C@H]1CC[C@H](Nc2nc(NC3CCN(C(=O)Oc4ccc(Br)cc4)CC3)c3ncn(C4CCCC4)c3n2)CC1 [compound 81, trans-4-[2-(4-Amino-cyclohexylamino)-9-cyclopentyl-9H-purin-6-ylamino]-piperidine-1-carboxylic acid 4-bromo-phenyl ester dihydrochloride] | 16 nM | – | – | 39 nM | – | – | 67 nM | 5.3 | – | – | – | – | – | – | – | 660 ng·h/mL | 1770 ng/mL | 1.7 h | 0.03 µM | 0.07 µM | PC-3 Mean Vol. ± SD ([1]; Table 5, dose 1 mg/kg ip): 1258 ± 523; PC-3 Mean Vol. ± SD ([1]; Table 5, dose 3 mg/kg ip): 1007 ± 1120; concentration at 0.083 h (in vivo; iv, 18 mg/kg): 1770 ± 384 ng/mL; concentration at 0.25 h (in vivo; iv, 18 mg/kg): 394 ± 142 ng/mL; concentration at 0.5 h (in vivo; iv, 18 mg/kg): 164 ± 47.2 ng/mL; concentration at 1 h (in vivo; iv, 18 mg/kg): 65.3 ± 10 ng/mL; concentration at 3 h (in vivo; iv, 18 mg/kg): 12.7 ± 3.4 ng/mL; concentration at 6 h (in vivo; iv, 18 mg/kg): 5.4 ± 1.5 ng/mL; concentration at 8 h (in vivo; iv, 18 mg/kg): 3.5 ± 0.9 ng/mL |
| COC(=O)c1ccc(OC(=O)N2CCC(Nc3nc(N[C@H]4CC[C@H](N)CC4)nc4c3ncn4C3CCCC3)CC2)cc1.Cl.Cl [compound 83, trans-4-[2-(4-Amino-cyclohexylamino)-9-cyclopentyl-9H-purin-6-ylamino]-piperidine-1-carboxylic acid 4-methoxycarbonyl-phenyl ester dihydrochloride] | 19 nM | – | – | 44 nM | – | – | 185 nM | 4.1 | – | – | – | – | – | – | – | 449 ng·h/mL | 1520 ng/mL | 0.7 h | 0.07 µM | 0.07 µM | PC-3 Mean Vol. ± SD ([1]; Table 5, dose 3 mg/kg ip): 899 ± 593; PC-3 Mean Vol. ± SD ([1]; Table 5, dose 10 mg/kg ip): 1426 ± 1131; concentration at 0.083 h (in vivo; iv, 18 mg/kg): 1520 ± 612 ng/mL; concentration at 0.25 h (in vivo; iv, 18 mg/kg): 218 ± 92.8 ng/mL; concentration at 0.5 h (in vivo; iv, 18 mg/kg): 61.3 ± 32.9 ng/mL; concentration at 1 h (in vivo; iv, 18 mg/kg): 14.1 ng/mL; concentration at 3 h (in vivo; iv, 18 mg/kg): 4.1 ng/mL; concentration at 6 h (in vivo; iv, 18 mg/kg): 1.6 ng/mL; concentration at 8 h (in vivo; iv, 18 mg/kg): 6.3 ng/mL |
| Cl.Cl.N[C@H]1CC[C@H](Nc2nc(NC3CCN(C(=O)Oc4ccc(Cl)cc4)CC3)c3ncn(C4CCCC4)c3n2)CC1 [compound 88, trans-4-[2-(4-Amino-cyclohexylamino)-9-cyclopentyl-9H-purin-6-ylamino]-piperidine-1-carboxylic acid 4-chloro-phenyl ester dihydrochloride] | 35 nM | 1601 ± 1348 | 2278 ± 2110 | 7 nM | – | – | 204 nM | 2.6 | 1480 ± 272 ng/mL | 421 ± 49.9 ng/mL | 150 ± 5.9 ng/mL | 74.6 ± 16.1 ng/mL | 24.8 ± 7.4 ng/mL | 8.9 ± 1.6 ng/mL | 5.4 ± 2 ng/mL | 642 ng·h/mL | 1480 ng/mL | 1.9 h | 0.04 µM | 0.06 µM | – |
| Cl.Cl.N[C@H]1CC[C@H](Nc2nc(NC3CCN(S(=O)(=O)c4ccc(F)cc4)CC3)c3ncn(C4CCCC4)c3n2)CC1 [compound 106, trans-N^2-(4-Amino-cyclohexyl)-9-cyclopentyl-N^6-[1-(4-fluoro-benzenesulfonyl)-piperidin-4-yl]-9H-purine-2,6-diamine dihydrochloride] | 8 nM | 1860 ± 741 | 1482 ± 906 | 8 nM | 0.13 µM | 0.22 µM | 15 nM | 3.9 | 765 ± 64.3 ng/mL | 397 ± 59.2 ng/mL | 185 ± 13 ng/mL | 63.3 ± 0.5 ng/mL | 21.8 ± 6.1 ng/mL | 4.3 ± 0.8 ng/mL | – | 440 ng·h/mL | 765 ng/mL | 1.3 h | – | – | – |
| Cl.Cl.N[C@H]1CC[C@H](Nc2nc(NC3CCN(S(=O)(=O)c4cccc(C(F)(F)F)c4)CC3)c3ncn(C4CCCC4)c3n2)CC1 [compound 112, trans-N^2-(4-Amino-cyclohexyl)-9-cyclopentyl-N^6-[1-(3-trifluoromethyl-benzenesulfonyl)-piperidin-4-yl]-9H-purine-2,6-diamine dihydrochloride] | 32 nM | 1155 ± 872 | – | 48 nM | < 0.02 µM | 0.07 µM | 224 nM | 3.7 | 2810 ± 272 ng/mL | 1700 ± 312 ng/mL | 435 ± 48 ng/mL | 175 ± 42.4 ng/mL | 45 ± 7.2 ng/mL | 17.7 ± 1.7 ng/mL | 13.6 ± 3.7 ng/mL | 1460 ng·h/mL | 2810 ng/mL | 2.8 h | – | – | PC-3 Mean Vol. ± SD ([1]; Table 4, dose 0.3 mg/kg ip): 1302 ± 869 |
| COC(=O)c1ccccc1S(=O)(=O)N1CCC(Nc2nc(N[C@H]3CC[C@H](N)CC3)nc3c2ncn3C2CCCC2)CC1.Cl.Cl [compound 111, trans-2-{4-[2-(4-Amino-cyclohexylamino)-9-cyclopentyl-9H-purin-6-ylamino]-piperidine-1-sulfonyl}-benzoic acid methyl ester dihydrochloride] | 17 nM | – | 1083 ± 704 | 9 nM | 0.09 µM | 0.28 µM | 51 nM | 1.2 | – | – | – | – | – | – | – | 1460 ng·h/mL | 2450 ng/mL | 2 h | – | – | PC-3 Mean Vol. ± SD ([1]; Table 4, dose 10 mg/kg ip): 2114 ± 1320; concentration at 0.083 h (in vivo; iv, 18 mg/kg): 2450 ± 287 ng/mL; concentration at 0.25 h (in vivo; iv, 18 mg/kg): 1090 ± 129 ng/mL; concentration at 0.5 h (in vivo; iv, 18 mg/kg): 588 ± 29.3 ng/mL; concentration at 1 h (in vivo; iv, 18 mg/kg): 335 ± 81.3 ng/mL; concentration at 3 h (in vivo; iv, 18 mg/kg): 33.8 ± 6.8 ng/mL; concentration at 6 h (in vivo; iv, 18 mg/kg): 10.9 ± 3 ng/mL; concentration at 8 h (in vivo; iv, 18 mg/kg): 6 ± 2 ng/mL |
